Results from patent publication US8952024B2, “Herbicidal pyrimidone derivatives” (E I du Pont de Nemours and Company, priority 2009, dated 2015).

Assays:
Format in all cases: in vivo
[1] = system: windgrass (Apera spica-venti); test: Test B postemergence plant response; conditions: for Windgrass plant response rating (0 to 100 scale): 62 g ai/ha, 0 is no effect, 13 to 15 days
Outline: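 Plants grown in peat/vermiculite medium were sprayed postemergence at 2–18 cm height (1- to 4-leaf stage). After 13–15 days in the greenhouse, response was rated visually against untreated controls on a 0–100 scale (0 no effect, 100 complete control).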

[2] = system: corn (Zea mays); test: Test A pre-/postemergence plant response
Outline: (§1)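 Pre: directed soil spray on seeded loam/sand blend. Post: same formulation (non-phytotoxic solvent + surfactant) on 2–10 cm plants, 1–2 leaf stage. Greenhouse ~10 d; visual injury score 0–100 vs untreated.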

[3] = system: morningglory (Ipomoea spp.); test: Test A pre-/postemergence plant response
Outline: as §1

[4] = system: wheat (Triticum aestivum); test: Test A pre-/postemergence plant response
Outline: as §1

[5] = system: pigweed (Amaranthus retroflexus); test: Test A pre-/postemergence plant response
Outline: as §1

[6] = system: barnyardgrass (Echinochloa crus-galli); test: Test A pre-/postemergence plant response
Outline: as §1

[7] = system: large crabgrass (Digitaria sanguinalis); test: Test A pre-/postemergence plant response
Outline: as §1

[8] = system: velvetleaf (Abutilon theophrasti); test: Test A pre-/postemergence plant response
Outline: as §1

[9] = system: giant foxtail (Setaria faberii); test: Test A pre-/postemergence plant response
Outline: as §1

[10] = system: barnyardgrass (Echinochloa crus-galli); test: Test B flooded paddy test; conditions: for Plant response rating, Flood, Barnyardgrass: 250 g ai/ha, flooded paddy test, visual rating on 0 to 100 scale (0 no effect, 100 complete control) after 13 to 15 days; for Plant response rating, Barnyardgrass: Flood (flooded paddy test), 13 to 15 days; for Barnyardgrass plant response rating: Flood, 31 g ai/ha, scale 0 to 100 (0 no effect, 100 complete control)
Outline: (§2)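 Ratings are visual, 0–100 (100 = complete control), taken versus untreated controls 13 to 15 days after treatment in the greenhouse. Compound went straight into paddy water held 3 cm above soil, applied to 2-leaf-stage plants of four species.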

[11] = system: umbrella sedge (Cyperus difformis); test: Test B flooded paddy test; conditions: for Plant response rating, Flood, Sedge, Umbrella: 250 g ai/ha, flooded paddy test, visual rating on 0 to 100 scale (0 no effect, 100 complete control) after 13 to 15 days; for Plant response rating, Sedge, Umbrella: Flood (flooded paddy test), 13 to 15 days; for Sedge, Umbrella plant response rating: Flood, 31 g ai/ha, scale 0 to 100 (0 no effect, 100 complete control)
Outline: as §2

[12] = system: ducksalad (Heteranthera limosa); test: Test B flooded paddy test; conditions: for Plant response rating, Flood, Ducksalad: 250 g ai/ha, flooded paddy test, visual rating on 0 to 100 scale (0 no effect, 100 complete control) after 13 to 15 days; for Plant response rating, Ducksalad: Flood (flooded paddy test), 13 to 15 days; for Ducksalad plant response rating: Flood, 31 g ai/ha, scale 0 to 100 (0 no effect, 100 complete control)
Outline: as §2

[13] = system: rice (Oryza sativa); test: Test B flooded paddy test; conditions: for Plant response rating, Flood, Rice: 250 g ai/ha, flooded paddy test, visual rating on 0 to 100 scale (0 no effect, 100 complete control) after 13 to 15 days; for Plant response rating, Rice: Flood (flooded paddy test), 13 to 15 days; for Rice plant response rating: Flood, 31 g ai/ha, scale 0 to 100 (0 no effect, 100 complete control)
Outline: as §2

[14] = 31 g ai/ha, postemergence, scale 0 to 100, 0 is no effect, 100 is complete control
[15] = postemergence, 100 is complete control
[16] = Postemergence, 250 g ai/ha, scale 0 to 100 (0 no effect, 100 complete control)
[17] = Postemergence, 125 g ai/ha, 0 to 100 scale where 0 is no effect and 100 is complete control
[18] = Postemergence, 500 g ai/ha, 0 to 100 scale, 0 = no effect, 100 = complete control, approx. ten days
[19] = Preemergence, 125 g ai/ha, 0 to 100 scale, 0 = no effect, 100 = complete control
[20] = Preemergence, 500 g ai/ha, visual injury, 0 to 100 scale (0 no effect, 100 complete control), approx. ten days
[21] = 62 g ai/ha, scale of 0 to 100 where 0 is no effect and 100 is complete control
[22] = 125 g ai/ha, scale 0 to 100, 0 is no effect, 100 is complete control

O=C1CCCC(O)=C1C(=O)c1cnc(C2CC2)n(-c2ccccc2)c1=O [Compound 87]
Plant response rating, Windgrass [1, 14]: 55 | Windgrass plant response rating (0 to 100 scale) [1, 15]: 60 | Plant response rating, Windgrass [1, 16]: 95 | Plant response rating, Corn [2, 17]: 10 | Plant response rating, Corn [2, 18]: 50 | Plant response rating, Corn [2, 19]: 0 | Plant response rating, Corn [2, 20]: 0 | Plant response rating, Morningglory [3, 17]: 90 | Plant response rating, Morningglory [3, 18]: 100 | Plant response rating, Morningglory [3, 19]: 50 | Plant response rating, Morningglory [3, 20]: 80 | Plant response rating, Wheat [4, 17]: 30 | Plant response rating, Wheat [4, 18]: 60 | Plant response rating, Wheat [4, 19]: 10 | Plant response rating, Wheat [4, 20]: 40 | Plant response rating, Pigweed [5, 17]: 100 | Plant response rating, Pigweed [5, 18]: 100 | Plant response rating, Barnyardgrass [6, 17]: 80 | Plant response rating, Barnyardgrass [6, 18]: 90 | Plant response rating, Barnyardgrass [6, 19]: 20 | Plant response rating, Barnyardgrass [6, 20]: 90 | Plant response rating, Crabgrass, Large [7, 17]: 90 | Plant response rating, Crabgrass, Large [7, 18]: 90 | Plant response rating, Crabgrass, Large [7, 20]: 100 | Plant response rating, Velvetleaf [8, 17]: 100 | Plant response rating, Velvetleaf [8, 18]: 100 | Plant response rating, Velvetleaf [8, 19]: 100 | Plant response rating, Velvetleaf [8, 20]: 100 | Plant response rating, Foxtail, Giant [9, 17]: 70 | Plant response rating, Foxtail, Giant [9, 18]: 90 | Plant response rating, Foxtail, Giant [9, 20]: 80 | Plant response rating, Flood, Barnyardgrass [10]: 60 | Plant response rating, Barnyardgrass [10, 21]: 45 | Plant response rating, Barnyardgrass [10, 22]: 55 | Barnyardgrass plant response rating [10]: 20 | Plant response rating, Flood, Sedge, Umbrella [11]: 70 | Plant response rating, Sedge, Umbrella [11, 21]: 20 | Plant response rating, Sedge, Umbrella [11, 22]: 50 | Sedge, Umbrella plant response rating [11]: 0 | Plant response rating, Flood, Ducksalad [12]: 20 | Plant response rating, Ducksalad [12, 21]: 30 | Plant response rating, Ducksalad [12, 22]: 20 | Ducksalad plant response rating [12]: 20 | Plant response rating, Flood, Rice [13]: 70 | Plant response rating, Rice [13, 21]: 20 | Plant response rating, Rice [13, 22]: 60 | Rice plant response rating [13]: 0

O=C1CCCC(O)=C1C(=O)c1cnc(-c2ccccc2)n(C2CC2)c1=O [Compound 90]
Plant response rating, Windgrass [1, 14]: 0 | Windgrass plant response rating (0 to 100 scale) [1, 15]: 5 | Plant response rating, Windgrass [1, 16]: 50 | Plant response rating, Corn [2, 17]: 0 | Plant response rating, Corn [2, 18]: 20 | Plant response rating, Corn [2, 19]: 0 | Plant response rating, Corn [2, 20]: 0 | Plant response rating, Morningglory [3, 17]: 100 | Plant response rating, Morningglory [3, 18]: 100 | Plant response rating, Morningglory [3, 19]: 0 | Plant response rating, Morningglory [3, 20]: 70 | Plant response rating, Wheat [4, 17]: 0 | Plant response rating, Wheat [4, 18]: 40 | Plant response rating, Wheat [4, 19]: 0 | Plant response rating, Wheat [4, 20]: 0 | Plant response rating, Pigweed [5, 17]: 100 | Plant response rating, Pigweed [5, 18]: 100 | Plant response rating, Pigweed [5, 19]: 80 | Plant response rating, Pigweed [5, 20]: 100 | Plant response rating, Barnyardgrass [6, 17]: 80 | Plant response rating, Barnyardgrass [6, 18]: 90 | Plant response rating, Barnyardgrass [6, 19]: 40 | Plant response rating, Barnyardgrass [6, 20]: 70 | Plant response rating, Crabgrass, Large [7, 17]: 80 | Plant response rating, Crabgrass, Large [7, 18]: 90 | Plant response rating, Crabgrass, Large [7, 19]: 60 | Plant response rating, Crabgrass, Large [7, 20]: 100 | Plant response rating, Velvetleaf [8, 17]: 100 | Plant response rating, Velvetleaf [8, 18]: 100 | Plant response rating, Velvetleaf [8, 19]: 70 | Plant response rating, Velvetleaf [8, 20]: 100 | Plant response rating, Foxtail, Giant [9, 17]: 70 | Plant response rating, Foxtail, Giant [9, 18]: 80 | Plant response rating, Foxtail, Giant [9, 19]: 30 | Plant response rating, Foxtail, Giant [9, 20]: 60 | Plant response rating, Flood, Barnyardgrass [10]: 30 | Plant response rating, Barnyardgrass [10, 21]: 0 | Plant response rating, Barnyardgrass [10, 22]: 15 | Barnyardgrass plant response rating [10]: 0 | Plant response rating, Flood, Sedge, Umbrella [11]: 80 | Plant response rating, Sedge, Umbrella [11, 21]: 60 | Plant response rating, Sedge, Umbrella [11, 22]: 75 | Sedge, Umbrella plant response rating [11]: 50 | Plant response rating, Flood, Ducksalad [12]: 90 | Plant response rating, Ducksalad [12, 21]: 65 | Plant response rating, Ducksalad [12, 22]: 80 | Ducksalad plant response rating [12]: 50 | Plant response rating, Flood, Rice [13]: 0 | Plant response rating, Rice [13, 21]: 0 | Plant response rating, Rice [13, 22]: 0 | Rice plant response rating [13]: 0

COCCOCCn1c(-c2ccccc2)ncc(C(=O)C2=C(O)CCCC2=O)c1=O [Compound 91]
Plant response rating, Windgrass [1, 14]: 10 | Windgrass plant response rating (0 to 100 scale) [1, 15]: 40 | Plant response rating, Windgrass [1, 16]: 65 | Plant response rating, Corn [2, 17]: 0 | Plant response rating, Corn [2, 18]: 10 | Plant response rating, Corn [2, 19]: 0 | Plant response rating, Corn [2, 20]: 0 | Plant response rating, Morningglory [3, 17]: 100 | Plant response rating, Morningglory [3, 18]: 100 | Plant response rating, Morningglory [3, 19]: 20 | Plant response rating, Morningglory [3, 20]: 80 | Plant response rating, Wheat [4, 17]: 0 | Plant response rating, Wheat [4, 18]: 50 | Plant response rating, Wheat [4, 19]: 0 | Plant response rating, Wheat [4, 20]: 20 | Plant response rating, Pigweed [5, 17]: 100 | Plant response rating, Pigweed [5, 18]: 100 | Plant response rating, Pigweed [5, 19]: 90 | Plant response rating, Pigweed [5, 20]: 90 | Plant response rating, Barnyardgrass [6, 17]: 90 | Plant response rating, Barnyardgrass [6, 18]: 100 | Plant response rating, Barnyardgrass [6, 19]: 60 | Plant response rating, Barnyardgrass [6, 20]: 100 | Plant response rating, Crabgrass, Large [7, 17]: 90 | Plant response rating, Crabgrass, Large [7, 18]: 100 | Plant response rating, Crabgrass, Large [7, 19]: 90 | Plant response rating, Crabgrass, Large [7, 20]: 100 | Plant response rating, Velvetleaf [8, 17]: 100 | Plant response rating, Velvetleaf [8, 18]: 100 | Plant response rating, Velvetleaf [8, 19]: 100 | Plant response rating, Velvetleaf [8, 20]: 100 | Plant response rating, Foxtail, Giant [9, 17]: 80 | Plant response rating, Foxtail, Giant [9, 18]: 80 | Plant response rating, Foxtail, Giant [9, 19]: 40 | Plant response rating, Foxtail, Giant [9, 20]: 70 | Plant response rating, Flood, Barnyardgrass [10]: 65 | Plant response rating, Barnyardgrass [10, 21]: 20 | Plant response rating, Barnyardgrass [10, 22]: 60 | Barnyardgrass plant response rating [10]: 15 | Plant response rating, Flood, Sedge, Umbrella [11]: 100 | Plant response rating, Sedge, Umbrella [11, 21]: 95 | Plant response rating, Sedge, Umbrella [11, 22]: 100 | Sedge, Umbrella plant response rating [11]: 75 | Plant response rating, Flood, Ducksalad [12]: 100 | Plant response rating, Ducksalad [12, 21]: 90 | Plant response rating, Ducksalad [12, 22]: 90 | Ducksalad plant response rating [12]: 65 | Plant response rating, Flood, Rice [13]: 15 | Plant response rating, Rice [13, 21]: 15 | Plant response rating, Rice [13, 22]: 15 | Rice plant response rating [13]: 0
